Experimental data: patent publication US9359281B2, “Enantiomers of 2-hydroxy derivatives of fatty acids” (UNIVERSITAT DE LES ILLES BALEARS, priority 2011, dated 2016)

Experiments:
enzyme EC 2.7.8.27 [1] = experiment: Activity of enzyme EC 2.7.8.27 in U118 cells (NBD-Cer to NBD-SM); format: cell-based, human; conditions: U118, 200 μM, 5 minutes to 24 hours
Protocol: (§1) FIG. 4. Compound 2OHOA acts directly on enzyme EC 2.7.8.27. In A, B, C, in all cases, we incubated cells or cellular extracts or means of incubation with the fluorescent stratum of this enzyme NBD-Cer (nitro-benzoxadiazol-il) ceramide], in the presence or absence (control, white bars) of 2OHOA (black bars). Then, we extracted the lipids and determined the levels of formation of NBD-SM per HPTLC (HP-TLC, high performance thin layer chromatography). The values are presented on the ordinate axis as the average±ESM (n=3-5).
A. In vivo experiment of the activity of enzyme EC 2.7.8.27: we incubated U118 cells with NBD-Cer for 4 hours and then treated them with compound 2OHOA (200 μM) for different periods of time (5, 15, 60 minutes y 24 hours). Later, the cells homogenised and we measured the metabolisation of fluorofor NBD-Cer to become NBD-SM.
The speed of the phenomenon clearly indicates direct and effective interaction between enantiomer 2OHOA and enzyme EC 2.7.8.27. So, this invention refers to the use of the aforementioned compounds as activators (enantiomer [−]), or inhibitors (enantiomer [+]) specific to enzyme EC 2.7.8.27.

enzyme EC 2.3.1.50 = experiment: [3H]palmitate incorporation in lipid fractions of U118 cells; format: cell-based, human; parameters: dose or concentration left out as unconfirmed; conditions: U118, 24 h
Protocol: FIG. 9. Regulation of the activity of enzyme 2.3.1.50.
We incubated human glioma cells U118 in the presence or absence (control) of 2OHOA ([…], 24 h) and later incubated them with [^3H]palmitate for 5 minutes. After these periods of incubation, we extracted the cellular lipids and separated them by TLC. The bands correspond to each species of lipid extracted and the amount of radioactive palmitate incorporated was measured by liquid shining. As we can see, not only was there an important incorporation of the fraction of the SM (an indicator of the activity of enzyme EC 2.7.8.27), but also in the fraction of the ceramide, which indicates activity of enzyme EC 2.3.1.50 (serin-palmitoil transferase).

enzyme EC 2.7.8.27 [2] = experiment: Activity of enzyme EC 2.7.8.27 in cellular extracts (NBD-Cer); format: biochemical; conditions: homogenised cells, 200 μM, NBD-Cer 2 hours
Protocol: as §1
B. In vitro experiment of the activity of enzyme EC 2.7.8.27 in cellular extracts, where we measured the activity of the enzyme after killing the cells. […] For these experiments, homogenised cells were incubated with compound 2OHOA (200 μM) and NBD-Cer for 2 hours.

HepG2 cells = experiment: Levels of SM in cell membranes, HepG2; format: cell-based, human; conditions: HepG2, 200 μM [−]2OHOA
Protocol: (§2) The levels of SM, cultivated in the absence (control) or presence of 200 μM of [−]2OHOA, in normal cell membranes (MRC-5 and IMR90) were measured, and also in several types of tumoral cells (see Table 2). In all cases, we detected that the membranes of tumoral cells have SM levels of about half or a third of that in normal cells (FIG. 1). We can therefore assert that SM concentration is a biomarker which indicates tumorgenesis in human cells. On the other hand, treatments with the molecules of the present invention induce an increase of SM in the tumour cells which is not naturally occurring. […] For example, the spectrophotometry determination of solution fluorescence of the SM levels is a very simple, quick and efficient analysis method (FIG. 1D). Thus, this invention has generated a method for diagnosis for detecting the described pathological processes and pathologies in which there are SM level changes, and also for monitoring the efficiency of the therapy using molecules of the present invention and others of similar activity. Based on this knowledge, this invention also includes kits for diagnosing these diseases.

A172 cells = experiment: Cell growth inhibition, A172; format: cell-based, human; parameters: key: +: inhibition of cell growth; −: absence of effect
MDA-MB-231 cells = experiment: Levels of SM in cell membranes, MDA-MB-231; format: cell-based, human; conditions: MDA-MB-231, 200 μM [−]2OHOA
Protocol: as §2

T98G cells [3] = experiment: Cell growth inhibition, T98G; format: cell-based, human; parameters: key: +: inhibition of cell growth; −: absence of effect
IMR90 cells = experiment: Levels of SM in cell membranes, IMR90; format: cell-based, human; conditions: IMR90 non-tumoral fibroblast, 200 μM [−]2OHOA
Protocol: as §2

PC3 cells = experiment: Levels of SM in cell membranes, PC3; format: cell-based, human; conditions: PC3, 200 μM [−]2OHOA
Protocol: as §2

[4] = system: human lung tumour sections (A549 cells); experiment: SM marking (lysenin) in A549 tumour sections from treated mice; format: in vivo; conditions: 600 or 900 mg/kg per day, oral, 50 days
Protocol: C. Upper panel: specific marking by immunocytochemical techniques of the SM (left: lysenin followed by an antibody marked with Alexa 488 fluorophore), of nuclear DNA with Hoechst 33258 (center: Hoechst) or both (right, merge). Figures correspond to human lung tumour sections (A549 cells) formed in immuno-depressed mice treated with a vehicle (control) or with [−]2OHOA at 600 mg/kg per day or at 900 mg/kg per day (oral administration, 50 days).
Bottom panel: The ordinate axis represents the quantification of the fluorescence intensity (arbitrary units) by confocal microscopy in slices of tumours shown in the upper panel (average+average standard deviation), coming from animals treated with a vehicle, or 2OHOA at 600 mg/kg per day (T600) or 900 mg/kg per day (T900) during 50 days. *** P<0.001.

U937 cells = experiment: Levels of SM in cell membranes, U937; format: cell-based, human; conditions: U937, 200 μM [−]2OHOA
Protocol: as §2

C-6 cells = experiment: Levels of SM in cell membranes, C-6; format: cell-based; conditions: C-6 rat glioma, 200 μM [−]2OHOA
Protocol: as §2

T98G cells [5] = experiment: Levels of SM in cell membranes, T98G; format: cell-based, human; conditions: 200 μM [−]2OHOA
Protocol: as §2

1321N1 cells = experiment: Cell growth inhibition, 1321N1; format: cell-based, human; parameters: key: +: inhibition of cell growth; −: absence of effect
SF268 cells = experiment: Levels of SM in cell membranes, SF268; format: cell-based, human; conditions: SF268, 200 μM [−]2OHOA
Protocol: as §2

HeLa cells = experiment: Levels of SM in cell membranes, HeLa; format: cell-based, human; conditions: 200 μM [−]2OHOA
Protocol: as §2

Compound	activation of enzyme EC 2.7.8.27 in cell cultures (enzyme EC 2.7.8.27 [1])	activity of enzyme EC 2.3.1.50 ([3H]palmitate in ceramide fraction) (enzyme EC 2.3.1.50)	activation of enzyme EC 2.7.8.27 in cellular extracts (enzyme EC 2.7.8.27 [2])	% SM after treatment (HepG2 cells)	Effect (anti-proliferation effect) (A172 cells)	% SM after treatment (MDA-MB-231 cells)	Effect (anti-proliferation effect) (T98G cells [3])	% SM after treatment (IMR90 cells)	% SM after treatment (PC3 cells)	levels of SM in A549 tumours [4]	% SM after treatment (U937 cells)	% SM after treatment (C-6 cells)	% SM after treatment (T98G cells [5])	Effect (anti-proliferation effect) (1321N1 cells)	% SM after treatment (SF268 cells)	% SM after treatment (HeLa cells)
CCCCCCCC/C=C\CCCCCCC(O)C(=O)O (racemic) [2OHOA, 2-hydroxyoleic acid]	enzymatic activation is visible from the first few minutes of incubation	specific activator of enzyme EC 2.3.1.50	able to activate enzyme EC 2.7.8.27 by direct interaction													
CCCCCCCC/C=C\CCCCCCC(O)C(=O)O (stereo not shown) [[−]2OHOA] [[−] HOOC—HOCH—(CH2)6—(CH═CH—CH2)1—(CH2)6—CH3]				35%	+	31%	+	23%	27%	levels of SM significantly increase	24%	20%	19%	+	26%	21%
